# Data as given in patent US12552790B2, “Positive modulators of the muscarinic acetylcholine receptor M4” (Vanderbilt University, priority 2023, dated 2026).
# What was measured:
# Human M4 = target: T1, Human M4 (Homo sapiens, UniProt P08173); assay: M4 cell-based functional assay, calcium mobilization, potentiation of ACh EC20; conditions: for Emax at 30 µM: % ACh maximum at 30 μM; for EC50: CHO-K1 hM4-Gqi5 cells, calcium flux, ACh EC20
# T1 construct: expressed in transfected cells
# T1 sequence (P08173 1-479): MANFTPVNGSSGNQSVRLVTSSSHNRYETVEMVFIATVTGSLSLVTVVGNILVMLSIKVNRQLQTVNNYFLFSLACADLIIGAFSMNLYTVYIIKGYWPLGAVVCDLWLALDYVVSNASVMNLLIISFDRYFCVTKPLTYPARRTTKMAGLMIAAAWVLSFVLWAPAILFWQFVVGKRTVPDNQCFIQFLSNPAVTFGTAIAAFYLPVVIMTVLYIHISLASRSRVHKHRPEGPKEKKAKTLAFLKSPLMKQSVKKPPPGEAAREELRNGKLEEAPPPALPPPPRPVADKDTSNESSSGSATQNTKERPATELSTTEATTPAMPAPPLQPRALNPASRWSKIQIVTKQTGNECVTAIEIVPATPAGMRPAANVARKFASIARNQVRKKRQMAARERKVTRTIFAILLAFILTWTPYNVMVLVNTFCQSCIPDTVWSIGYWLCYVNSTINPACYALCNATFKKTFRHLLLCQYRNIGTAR
# Protocol: Human and rat M4 cDNAs, along with the chimeric G protein Gqi5, were transfected into Chinese hamster ovary (CHO-K1) cells purchased from the American Type Culture Collection using Lipofectamine2000. The transfected cells were subjected to selection antbiotic treatment to generate stable cell lines; G418 sulfate (1 mg/ml) for selecting M4 expressing cells and Hygromycin B (500 μg/mL) for selecting Gqi5 expressing cells. The resulting polyclones were further screened to obtain monoclones of hM4-Gqi5 and rM4-Gqi5 for compound screening assay. Stable monoclone cells were maintained in Ham's F-12 medium containing 10% heat-inactivated fetal bovine serum (FBS), 1× Antibiotic/Antimycotic, 20 mM HEPES, 500 μg/mL G418 sulfate, and 200 μg/mL Hygromycin B in 37° C. humidified incubators in the presence of 5% CO2.
# (§1) The high throughput assay was employed to measure receptor-induced mobilization of intracellular calcium to determine compound activity. Test compound was added to cells expressing the muscarinic receptors that were loaded with calcium sensitive fluorescent dye. After a ˜2.5 minute incubation period, a submaximal (EC20) concentration of acetylcholine was added, and the response measured. This kinetic assay allows for simultaneous screening and potency determination of multiple pharmacological modes of action including agonist and potentiator activity. CHO-K1 cells stably expressing muscarinic receptors were plated in growth medium lacking G418 and hygromycin at 15,000 cells/20 μL/well in Greiner 384-well black-walled, tissue culture (TC)-treated, clear-bottom plates (Greiner Bio-One). Cells were incubated overnight at 37° C. and 5% CO2. The next day, calcium assay buffer (Hank's balanced salt solution (HBSS), 20 mM HEPES, 2.5 mM Probenecid, 4.16 mM sodium bicarbonate (Sigma-Aldrich, St. Louis, MO)) was prepared to dilute compounds, agonists, and Fluo-4-acetomethoxyester (Fluo-4-AM), fluorescent calcium indicator dye. Compounds were serially diluted 1:3 into 10 point concentration response curves in DMSO using the Bravo Liquid Handler (Agilent, Santa Clara, CA), transferred to a 384 well daughter plates using an Echo acoustic liquid handler (Beckman Coulter, Indianapolis, Indiana), and diluted in assay Buffer to a 2× final concentration. The agonist plates were prepared using acetylcholine (ACh, Sigma-Aldrich, St. Louis, MO) concentrations for the EC20 and ECMAX responses by diluting in assay buffer to a 5× final concentration. The 2× dye solution (2.3 μM) was prepared by mixing a 2.3 mM Fluo-4-AM stock in DMSO with 10% (w/v) pluronic acid F-127 in a 1:1 ratio in assay buffer. Using a microplate washer (BioTek, Winooski, VT), cells were washed with assay buffer for 3 times to remove medium. After the final wash, 20 μL of assay buffer remained in the cell plates. Immediately, 20 μL of the 2× dye solution (final 1.15 μM) was added to each well of the cell plate using a Multidrop Combi dispenser (Thermo Fisher, Waltham, MA). After cells were incubated with the dye solutions for 45 min at 37° C. in the presence of 5% CO2, the dye solutions were removed and replaced with assay buffer using a microplate washer, leaving 20 μL of assay buffer in the cell plate.
# The prepared compound, agonist, and cell plates were placed inside the Functional Drug Screening System uCell (FDSS uCell, Hamamatsu, Japan) to measure the calcium flux. The triple add protocol was used to measure Ca kinetics; Compound, ACh for EC20, and ACh for EC80 adds in an order. Briefly, after establishment of a fluorescence baseline for 2 seconds (excitation, 480 nm; emission, 530 nm), first add occurred by adding 20 μL of test compound to the cells, and the response was measured for 140 seconds. This is followed by second add; 10 μL (5×) of an EC20 concentration of ACh agonist was added to the cells, and the response of the cells was measured for 125 seconds. […]
# Human M2 = target: T2, Human M2 (Homo sapiens, UniProt P08172); assay: M2 cell-based functional assay, calcium mobilization (selectivity); conditions: for Emax at 30 µM: % ACh maximum at 30 μM; for EC50 / Human M2 EC50: M2 cell-based functional assay, calcium flux
# T2 construct: expressed in transfected cells; host or cells: CHO-K1
# T2 sequence (P08172 1-466): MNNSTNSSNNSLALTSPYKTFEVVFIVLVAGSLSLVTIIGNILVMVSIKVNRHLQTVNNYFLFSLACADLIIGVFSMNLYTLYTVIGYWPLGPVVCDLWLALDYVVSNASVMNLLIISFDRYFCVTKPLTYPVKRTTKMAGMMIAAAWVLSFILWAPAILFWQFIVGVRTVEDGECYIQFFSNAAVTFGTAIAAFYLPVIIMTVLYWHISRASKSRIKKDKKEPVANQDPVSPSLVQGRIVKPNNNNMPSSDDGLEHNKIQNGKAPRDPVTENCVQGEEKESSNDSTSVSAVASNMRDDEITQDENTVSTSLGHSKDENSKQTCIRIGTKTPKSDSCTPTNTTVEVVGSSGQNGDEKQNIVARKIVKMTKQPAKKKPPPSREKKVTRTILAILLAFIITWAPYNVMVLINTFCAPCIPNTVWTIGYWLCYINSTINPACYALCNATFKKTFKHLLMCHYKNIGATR
# Protocol: as §1
# The prepared compound, agonist, and cell plates were placed inside the Functional Drug Screening System uCell (FDSS uCell, Hamamatsu, Japan) to measure the calcium flux. The triple add protocol was used to measure Ca kinetics; Compound, ACh for EC20, and ACh for EC80 adds in an order. Briefly, after establishment of a fluorescence baseline for 2 seconds (excitation, 480 nm; emission, 530 nm), first add occurred by adding 20 μL of test compound to the cells, and the response was measured for 140 seconds. This is followed by second add; 10 μL (5×) of an EC20 concentration of ACh agonist was added to the cells, and the response of the cells was measured for 125 seconds. Immediately, the third add occurred by adding […] (5×) of an EC80 concentration of ACh and the response of the cells was measured for 90 seconds. Acetylcholine-mediated maximum response (ECmax) was measured by adding 1 mM ACh as third add in the control wells. DMSO vehicle was added to the control wells in the first add for assessing ACh EC20, EC80, and ECmax responses. Calcium fluorescence was recorded as fold over basal fluorescence and raw data were normalized to the maximal response to ACh agonist. Agonist activity was analyzed as a concentration-dependent increase in calcium mobilization upon compound addition. Positive allosteric modulator activity was analyzed as a concentration-dependent increase in the EC20 acetylcholine response. Antagonist activity was analyzed as a concentration-dependent decrease in the EC80 acetylcholine response. […]
SMILES,Emax at 30 µM (Human M4) [%],EC50 (Human M4) [µM],Emax at 30 µM (Human M2) [%],EC50 (Human M2) [µM],Human M2 EC50 (Human M2)
"[2H]C1([2H])Oc2ccc(OC3CCN(c4nc5n[nH]c(=O)n5cc4C)CC3)cc2OC1([2H])[2H] [Compound A1, 7-(4-((2,3-dihydrobenzo[b][1,4]dioxin-6-yl-2,2,3,3-d4)oxy)piperidin-1-yl)-6-methyl-[1,2,4]triazolo[4,3-a]pyrimidin-3(2H)-one]",100,0.005,78,0.367,
"[2H]C1([2H])Oc2ccc(OC3CCN(c4nc5nn(CC)c(=O)n5cc4C)CC3)cc2OC1([2H])[2H] [Compound A2, 7-(4-((2,3-dihydrobenzo[b][1,4]dioxin-6-yl-2,2,3,3-d4)oxy)piperidin-1-yl)-2-ethyl-6-methyl-[1,2,4]triazolo[4,3-a]pyrimidin-3(2H)-one]",82,0.002,70,0.884,
"[2H]C1([2H])Oc2ccc(OC3CCN(c4nc5nn(CCOC)c(=O)n5cc4C)CC3)cc2OC1([2H])[2H] [Compound A3, 7-(4-((2,3-dihydrobenzo[b][1,4]dioxin-6-yl-2,2,3,3-d4)oxy)piperidin-1-yl)-2-(2-methoxyethyl)-6-methyl-[1,2,4]triazolo[4,3-a]pyrimidin-3(2H)-one]",79,0.008,55,5.41,
"[2H]C1([2H])Oc2ccc(OC3CCN(c4nc5nn([C@@H]6CCOC6)c(=O)n5cc4C)CC3)cc2OC1([2H])[2H] [Compound A4, (R)-7-(4-((2,3-dihydrobenzo[b][1,4]dioxin-6-yl-2,2,3,3-d4)oxy)piperidin-1-yl)-6-methyl-2-(tetrahydrofuran-3-yl)-[1,2,4]triazolo[4,3-a]pyrimidin-3(2H)-one]",88,0.009,68,1.39,
"[2H]C1([2H])Oc2ccc(OC3CCN(c4nc5nn([C@H]6CCOC6)c(=O)n5cc4C)CC3)cc2OC1([2H])[2H] [Compound A5, (S)-7-(4-((2,3-dihydrobenzo[b][1,4]dioxin-6-yl-2,2,3,3-d4)oxy)piperidin-1-yl)-6-methyl-2-(tetrahydrofuran-3-yl)-[1,2,4]triazolo[4,3-a]pyrimidin-3(2H)-one]",87,0.012,66,2.87,
"[2H]C1([2H])Oc2ccc(OC3CCN(c4nc5nn(C(C)COC)c(=O)n5cc4C)CC3)cc2OC1([2H])[2H] (centres unmarked) [Compound A7, 7-(4-((2,3-dihydrobenzo[b][1,4]dioxin-6-yl-2,2,3,3-d4)oxy)piperidin-1-yl)-2-(1-methoxypropan-2-yl)-6-methyl-[1,2,4]triazolo[4,3-a]pyrimidin-3(2H)-one]",89,0.053,47,> 10,
"[2H]C1([2H])Oc2ccc(OC3CCN(c4nc5nn(CC6CN(C)CCO6)c(=O)n5cc4C)CC3)cc2OC1([2H])[2H] (centres unmarked) [Compound A8, 7-(4-((2,3-dihydrobenzo[b][1,4]dioxin-6-yl-2,2,3,3-d4)oxy)piperidin-1-yl)-6-methyl-2-((4-methylmorpholin-2-yl)methyl)-[1,2,4]triazolo[4,3-a]pyrimidin-3(2H)-one]",95,0.048,,,Inactive
"[2H]C1([2H])Oc2ccc(OC3CCN(c4nc5nn(C)c(=O)n5c(Cl)c4C)CC3)cc2OC1([2H])[2H] [Compound A11, 5-chloro-7-(4-((2,3-dihydrobenzo[b][1,4]dioxin-6-yl-2,2,3,3-d4)oxy)piperidin-1-yl)-2,6-dimethyl-[1,2,4]triazolo[4,3-a]pyrimidin-3(2H)-one]",90,0.012,57,6.09,

# The remaining lines, values ahead:
Emax at 30 µM (Human M4) [%],EC50 (Human M4) [µM],Emax at 30 µM (Human M2) [%],EC50 (Human M2) [µM],Human M2 EC50 (Human M2),SMILES
79,0.005,45,0.839,,"[2H]C1([2H])Oc2ccc(OC3CCN(c4nc5n[nH]c(=O)n5c(C)c4C)CC3)cc2OC1([2H])[2H] [Compound A9, 7-(4-((2,3-dihydrobenzo[b][1,4]dioxin-6-yl-2,2,3,3-d4)oxy)piperidin-1-yl)-5,6-dimethyl-[1,2,4]triazolo[4,3-a]pyrimidin-3(2H)-one]"
103,0.032,,,Inactive,"[2H]C1([2H])Oc2ccc(OC3CCN(c4nc5nn(C)c(=O)n5c(C5CC5)c4C)CC3)cc2OC1([2H])[2H] [Compound A12, 5-cyclopropyl-7-(4-((2,3-dihydrobenzo[b][1,4]dioxin-6-yl-2,2,3,3-d4)oxy)piperidin-1-yl)-2,6-dimethyl-[1,2,4]triazolo[4,3-a]pyrimidin-3(2H)-one]"
103,0.028,,,Inactive,"[2H]C([2H])([2H])n1nc2nc(N3CCC(Oc4ccc5c(c4)OC([2H])([2H])C([2H])([2H])O5)CC3)c(C)c(C3CC3)n2c1=O [Compound A13, 5-cyclopropyl-7-(4-((2,3-dihydrobenzo[b][1,4]dioxin-6-yl-2,2,3,3-d4)oxy)piperidin-1-yl)-6-methyl-2-(methyl-d3)-[1,2,4]triazolo[4,3-a]pyrimidin-3(2H)-one]"
